The data set is described as follows: recombinant barcode read abundance after kanamycin selection (control-corrected) (log10(CPM+1)); higher = more efficient recombination; sequences stand for … in AGTGCAGAGAAAATCGGCCAGTTTTCTCTGCCTGCAGTCCGCATGCCGT…AGATTTATGCAGCGGACTGCCTTTCTCCCAAAGTGATAAACCGGACAGTATCATGGACCGGTTTTCCCGGTAATCCGTATTTGCAAGGTTGGTTTCACT; site = the 11-nt target. In outline:
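Each value is log10(CPM+1). It describes recombination efficiency, taken as averaged, control-corrected counts per million of barcodes at recombinant junctions. The pooled E. coli library paired targets with IS621 bridge RNA target-binding loops, was co-electroporated with a donor plasmid, and was plated twice on chloramphenicol/ampicillin LB agar (control) and twice on chloramphenicol/ampicillin/kanamycin containing 0.1 mM IPTG.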
For “TGTATAGCTTGGGTTCTAACCTGTTGCTA (site GGTTTAGCTTA)”, the “recombinant barcode read abundance (log10)” value is 0.00884.

Regarding “TGTATAGCTTGGGTTCTAACCTGTTGCTA (site TGTATAGCTTA)”, the “recombinant barcode read abundance (log10)” value was 0.0299.

In the case of “TGTCAACCTTGGGTTCTAACCTGTTGCCT (site TGTCAAACTAG)”, the “recombinant barcode read abundance (log10)” value came out at 0.346.

“TGTCAACCTTGGGTTCTAACCTGTTGCCT (site TGTCAACCTAG)”: the “recombinant barcode read abundance (log10)” value stood at 0.998.

Turning to “TGTCAACCTTGGGTTCTAACCTGTTGCCT (site TGTCAAGCTAG)”, the “recombinant barcode read abundance (log10)” value turned out to be 0.12.

Turning to “TGTCAACCTTGGGTTCTAACCTGTTGCCT (site TGTCAATCTAG)”, the “recombinant barcode read abundance (log10)” value stood at 0.

Turning to “TGTCATGCTTGGGTTCTAACCTGTTGCGT (site CTCACACCTCT)”, the “recombinant barcode read abundance (log10)” value worked out at 0.238.

For the sequence “TGTCATGCTTGGGTTCTAACCTGTTGCGT (site TGTCATGCTAC)”, the “recombinant barcode read abundance (log10)” value came to 0.163.

As for “TGTCCTGCTTGGGTTCTAACCTGTTGCCT (site AGTCCTGCTAG)”, the “recombinant barcode read abundance (log10)” value is 0.

For the sequence “TGTCCTGCTTGGGTTCTAACCTGTTGCCT (site CGTCCTGCTAG)”, the “recombinant barcode read abundance (log10)” value came out at 0.167.

With “TGTCCTGCTTGGGTTCTAACCTGTTGCCT (site GGTCCTGCTAG)”, the “recombinant barcode read abundance (log10)” value came out at 0.11.

“TGTCCTGCTTGGGTTCTAACCTGTTGCCT (site TGTCCTGCTAG)”: the “recombinant barcode read abundance (log10)” value came out at 0.36.

As for “TGTCGATCTTGGGTTCTAACCTGTTGCCT (site TGTCAATCTAC)”, the “recombinant barcode read abundance (log10)” value was determined as 0.0889.

“TGTCGATCTTGGGTTCTAACCTGTTGCCT (site TGTCGATCTAG)”: the “recombinant barcode read abundance (log10)” value amounted to 0.94.

Take “TGTCTAGCTTGGGTTCTAACCTGTTGCGG (site CCAAATCCTAT)”: the “recombinant barcode read abundance (log10)” value stood at 0.208.

Take “TGTCTAGCTTGGGTTCTAACCTGTTGCGG (site TGTCTAGCTCC)”: the “recombinant barcode read abundance (log10)” value worked out at 0.695.

With “TGTCTATCTTGGGTTCTAACCTGTTGCCT (site TGTCTACCTAG)”, the “recombinant barcode read abundance (log10)” value is 0.123.

As to “TGTCTATCTTGGGTTCTAACCTGTTGCCT (site TGTCTATCTAG)”, the “recombinant barcode read abundance (log10)” value was 0.429.

As for “TGTCTGGCTTGGGTTCTAACCTGTTGCCT (site AGTCTGGCTAG)”, the “recombinant barcode read abundance (log10)” value amounted to 0.215.

Regarding “TGTCTGGCTTGGGTTCTAACCTGTTGCCT (site TGTCTGGCTAG)”, the “recombinant barcode read abundance (log10)” value was found to be 0.0185.

As for “TGTCTGTCTTGGGTTCTAACCTGTTGCTA (site TGTCTGTCTAA)”, the “recombinant barcode read abundance (log10)” value was found to be 0.0174.

As for “TGTCTGTCTTGGGTTCTAACCTGTTGCTA (site TGTCTGTCTTA)”, the “recombinant barcode read abundance (log10)” value is 0.0943.

With “TGTGAGTCTTGGGTTCTAACCTGTTGCGT (site TGTGAGTCTAA)”, the “recombinant barcode read abundance (log10)” value amounted to 0.347.

With “TGTGAGTCTTGGGTTCTAACCTGTTGCGT (site TGTGAGTCTAC)”, the “recombinant barcode read abundance (log10)” value came to 2.55.

For the sequence “TGTGAGTCTTGGGTTCTAACCTGTTGCGT (site TGTGAGTCTAG)”, the “recombinant barcode read abundance (log10)” value was found to be 0.27.

With “TGTGAGTCTTGGGTTCTAACCTGTTGCGT (site TGTGAGTCTAT)”, the “recombinant barcode read abundance (log10)” value was found to be 1.42.

For the sequence “TGTGCGGCTTGGGTTCTAACCTGTTGCCT (site AGTGCGGCTAG)”, the “recombinant barcode read abundance (log10)” value was determined as 0.0331.

On to “TGTGCGGCTTGGGTTCTAACCTGTTGCCT (site CGTGCGGCTAG)”, for which the “recombinant barcode read abundance (log10)” value came to 0.00936.

Take “TGTGCGGCTTGGGTTCTAACCTGTTGCCT (site GGTGCGGCTAG)”: the “recombinant barcode read abundance (log10)” value was found to be 0.535.

With “TGTGCGGCTTGGGTTCTAACCTGTTGCCT (site TGTGCGGCTAG)”, the “recombinant barcode read abundance (log10)” value was determined as 0.152.

As for “TGTTCCTCTTGGGTTCTAACCTGTTGCCT (site TGTACCTCTAG)”, the “recombinant barcode read abundance (log10)” value stood at 0.143.

Turning to “TGTTCCTCTTGGGTTCTAACCTGTTGCCT (site TGTCCCTCTAG)”, the “recombinant barcode read abundance (log10)” value is 0.142.

Take “TGTTCCTCTTGGGTTCTAACCTGTTGCCT (site TGTGCCTCTAG)”: the “recombinant barcode read abundance (log10)” value was found to be 0.114.

With “TGTTCCTCTTGGGTTCTAACCTGTTGCCT (site TGTTCCTCTAG)”, the “recombinant barcode read abundance (log10)” value came out at 0.106.

Consider “TGTTCTACTTGGGTTCTAACCTGTTGCCG (site TGCTCTACTCA)”, for which the “recombinant barcode read abundance (log10)” value came to 0.052.

With “TGTTCTACTTGGGTTCTAACCTGTTGCCG (site TGTTCTACTCG)”, the “recombinant barcode read abundance (log10)” value came to 0.0964.

“TGTTCTCCTTGGGTTCTAACCTGTTGCCT (site AGTTCTCCTAG)”: the “recombinant barcode read abundance (log10)” value was 0.0134.

Regarding “TGTTCTCCTTGGGTTCTAACCTGTTGCCT (site CGTTCTCCTAG)”, the “recombinant barcode read abundance (log10)” value is 0.0608.

Consider “TGTTCTCCTTGGGTTCTAACCTGTTGCCT (site GGTTCTCCTAG)”, for which the “recombinant barcode read abundance (log10)” value was found to be 0.064.

Take “TGTTCTCCTTGGGTTCTAACCTGTTGCCT (site TGTTCTCCTAG)”: the “recombinant barcode read abundance (log10)” value came out at 0.

With “TGTTGACCTTGGGTTCTAACCTGTTGCAT (site TGTAGATCTAT)”, the “recombinant barcode read abundance (log10)” value stood at 0.0346.

As for “TGTTGACCTTGGGTTCTAACCTGTTGCAT (site TGTTGACCTAT)”, the “recombinant barcode read abundance (log10)” value turned out to be 0.329.

Consider “TTACATGCTTGGGTTCTAACCTGTTGCCT (site AAGATCACTCC)”, for which the “recombinant barcode read abundance (log10)” value is 0.281.

“TTACATGCTTGGGTTCTAACCTGTTGCCT (site TTACATGCTAG)”: the “recombinant barcode read abundance (log10)” value worked out at 1.27.

As to “TTAGAGGCTTGGGTTCTAACCTGTTGCCT (site TTAGAGACTAG)”, the “recombinant barcode read abundance (log10)” value stood at 0.363.

With “TTAGAGGCTTGGGTTCTAACCTGTTGCCT (site TTAGAGCCTAG)”, the “recombinant barcode read abundance (log10)” value is 0.

Take “TTAGAGGCTTGGGTTCTAACCTGTTGCCT (site TTAGAGGCTAG)”: the “recombinant barcode read abundance (log10)” value was determined as 1.13.

Take “TTAGAGGCTTGGGTTCTAACCTGTTGCCT (site TTAGAGTCTAG)”: the “recombinant barcode read abundance (log10)” value came to 0.0154.

Regarding “TTAGCATCTTGGGTTCTAACCTGTTGCCT (site TTAGCATCTAG)”, the “recombinant barcode read abundance (log10)” value came out at 0.589.

Consider “TTAGCATCTTGGGTTCTAACCTGTTGCCT (site TTAGCCTCTAG)”, for which the “recombinant barcode read abundance (log10)” value turned out to be 0.412.

On to “TTAGCATCTTGGGTTCTAACCTGTTGCCT (site TTAGCGTCTAG)”, for which the “recombinant barcode read abundance (log10)” value turned out to be 0.161.

In the case of “TTAGCATCTTGGGTTCTAACCTGTTGCCT (site TTAGCTTCTAG)”, the “recombinant barcode read abundance (log10)” value was 0.0531.

As to “TTAGGGTCTTGGGTTCTAACCTGTTGCCT (site TTAGGGACTAG)”, the “recombinant barcode read abundance (log10)” value was 0.252.

Regarding “TTAGGGTCTTGGGTTCTAACCTGTTGCCT (site TTAGGGCCTAG)”, the “recombinant barcode read abundance (log10)” value turned out to be 1.17.

Take “TTAGGGTCTTGGGTTCTAACCTGTTGCCT (site TTAGGGGCTAG)”: the “recombinant barcode read abundance (log10)” value came to 0.0984.

As to “TTAGGGTCTTGGGTTCTAACCTGTTGCCT (site TTAGGGTCTAG)”, the “recombinant barcode read abundance (log10)” value is 2.15.

As to “TTAGTCGCTTGGGTTCTAACCTGTTGCCT (site TTAGTAGCTAG)”, the “recombinant barcode read abundance (log10)” value was 0.191.

For “TTAGTCGCTTGGGTTCTAACCTGTTGCCT (site TTAGTCGCTAG)”, the “recombinant barcode read abundance (log10)” value worked out at 2.28.

With “TTAGTCGCTTGGGTTCTAACCTGTTGCCT (site TTAGTGGCTAG)”, the “recombinant barcode read abundance (log10)” value was 0.134.

Values taken from the supplement of paper PMC11208160.
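Also: IS621 recombinase and bridge RNA in Escherichia coli cells.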
